# Test results as given in patent US7973061B2, “Anaplastic lymphoma kinase modulators and methods of use” (Exelixis, Inc., priority 2004, dated 2011).
# pIC50: −log10 of the molar value. Where two headings read alike, the source gives them in different places.
# Molecular target: T1, ALK (baculovirus expressed human ALK kinase domain F1098-K1410) (Homo sapiens, UniProt Q9UM73)
# T1 construct: human ALK kinase domain F1098-K1410; made in house
# Experiment: biochemical
# Outline: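 Inhibitors were tested at 10 concentrations, and IC50 was derived from a sigmoidal fit (Min, Max, Hill slope). Kinase activity was measured as percent ATP left after a 2 h reaction at room temperature, detected by luciferase-luciferin chemiluminescence. The ATP level was set close to KM for the ALK kinase domain F1098-K1410.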
# [1] = 1 μM ATP, 4 μM poly-AEKY, 12 nM ALK, 2 hours at ambient temperature, read-out: ALK IC50
# T1 sequence (Q9UM73 1098-1410): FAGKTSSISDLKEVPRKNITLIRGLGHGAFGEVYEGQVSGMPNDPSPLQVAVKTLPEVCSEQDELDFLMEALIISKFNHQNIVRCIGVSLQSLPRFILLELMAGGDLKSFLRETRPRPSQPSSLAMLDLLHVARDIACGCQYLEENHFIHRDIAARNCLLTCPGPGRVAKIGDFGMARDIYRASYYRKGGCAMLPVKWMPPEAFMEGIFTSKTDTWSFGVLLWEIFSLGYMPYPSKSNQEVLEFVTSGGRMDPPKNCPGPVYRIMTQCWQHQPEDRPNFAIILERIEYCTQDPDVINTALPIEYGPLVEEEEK
pIC50 [1],pIC50,SMILES
6.30 to 7.30,–,"O=C(COc1ccc(OC(F)(F)F)cc1)NCc1nc(C(=O)N[C@@H](Cc2ccccc2)C(=O)N2CCCC2)cs1 [Entry 91, N-[(1S)-2-oxo-1-(phenylmethyl)-2-pyrrolidin-1-ylethyl]-2-({[({4-[(trifluoromethyl)oxy]phenyl}oxy)acetyl]amino}methyl)-1,3-thiazole-4-carboxamide]"
6.30 to 7.30,–,"NS(=O)(=O)c1ccc(CCNC(=O)c2coc(CNC(=O)COc3ccc(OC(F)(F)F)cc3)n2)cc1 [Entry 92, N-{2-[4-(aminosulfonyl)phenyl]ethyl}-2-({[({4-[(trifluoromethyl)oxy]phenyl}oxy)acetyl]amino}methyl)-1,3-oxazole-4-carboxamide]"
6.30 to 7.30,–,"O=C(COc1ccc(OC(F)(F)F)cc1)NCc1nc(C(=O)NCCSCc2c(Cl)cccc2Cl)cs1 [Entry 93, N-(2-{[(2,6-dichlorophenyl)methyl]thio}ethyl)-2-({[({4-[(trifluoromethyl)oxy]phenyl}oxy)acetyl]amino}methyl)-1,3-thiazole-4-carboxamide]"
6.30 to 7.30,–,"CC(C)CNC(=O)c1csc(CNC(=O)COc2ccc(OC(F)(F)F)cc2)n1 [Entry 94, N-(2-methylpropyl)-2-({[({4-[(trifluoromethyl)oxy]phenyl}oxy)acetyl]amino}methyl)-1,3-thiazole-4-carboxamide]"
6.30 to 7.30,–,"C[C@H](NC(=O)c1csc(CNC(=O)COc2ccc(OC(F)(F)F)cc2)n1)C1CCCCC1 [Entry 95, N-[(1S)-1-cyclohexylethyl]-2-({[({4-[(trifluoromethyl)oxy]phenyl}oxy)acetyl]amino}methyl)-1,3-thiazole-4-carboxamide]"
6.30 to 7.30,–,"O=C(COc1ccc(OC(F)(F)F)cc1)NCc1nc(C(=O)N2CCc3c([nH]c4ccccc34)C2)cs1 [Entry 96, N-{[4-(1,3,4,9-tetrahydro-2H-beta-carbolin-2-ylcarbonyl)-1,3-thiazol-2-yl]methyl}-2-({4-[(trifluoromethyl)oxy]phenyl}oxy)acetamide]"
6.30 to 7.30,–,"O=C(COc1ccc(OC(F)(F)F)cc1)NCc1nc(C(=O)NCc2cc(C(F)(F)F)ccc2Cl)cs1 [Entry 97, N-{[2-chloro-5-(trifluoromethyl)phenyl]methyl}-2-({[({4-[(trifluoromethyl)oxy]phenyl}oxy)acetyl]amino}methyl)-1,3-thiazole-4-carboxamide]"
6.30 to 7.30,–,"Cc1ccccc1CNC(=O)c1csc(CNC(=O)COc2ccc(OC(F)(F)F)cc2)n1 [Entry 98, N-[(2-methylphenyl)methyl]-2-({[({4-[(trifluoromethyl)oxy]phenyl}oxy)acetyl]amino}methyl)-1,3-thiazole-4-carboxamide]"
6.30 to 7.30,–,"CC(NC(=O)c1coc(CNC(=O)COc2ccc(OC(F)(F)F)cc2)n1)c1cccc2ccccc12 (centres unmarked) [Entry 99, N-(1-naphthalen-1-ylethyl)-2-({[({4-[(trifluoromethyl)oxy]phenyl}oxy)acetyl]amino}methyl)-1,3-oxazole-4-carboxamide]"
6.30 to 7.30,–,"CCCCC(CC)COCCCNC(=O)c1csc(CNC(=O)COc2ccc(OC(F)(F)F)cc2)n1 (centres unmarked) [Entry 100, N-{3-[(2-ethylhexyl)oxy]propyl}-2-({[({4-[(trifluoromethyl)oxy]phenyl}oxy)acetyl]amino}methyl)-1,3-thiazole-4-carboxamide]"
6.30 to 7.30,–,"CCc1ccc(NC(=O)NCc2nc(C(=O)NCCc3ccccc3F)cs2)cc1 [Entry 101, 2-[({[(4-ethylphenyl)amino]carbonyl}amino)methyl]-N-[2-(2-fluorophenyl)ethyl]-1,3-thiazole-4-carboxamide]"
6.30 to 7.30,–,"C[C@H](NC(=O)c1csc(CNC(=O)COc2ccc(OC(F)(F)F)cc2)n1)C(C)(C)C [Entry 102, 2-({[({4-[(trifluoromethyl)oxy]phenyl}oxy)acetyl]amino}methyl)-N-[(1S)-1,2,2-trimethylpropyl]-1,3-thiazole-4-carboxamide]"
6.30 to 7.30,–,"O=C(COc1ccc(OC(F)(F)F)cc1)NCc1nc(C(=O)N[C@H]2CCC[C@@H]2OCc2ccccc2)cs1 [Entry 103, N-{(1S,2S)-2-[(phenylmethyl)oxy]cyclopentyl}-2-({[({4-[(trifluoromethyl)oxy]phenyl}oxy)acetyl]amino}methyl)-1,3-thiazole-4-carboxamide]"
6.30 to 7.30,–,"O=C(COc1ccc(OC(F)(F)F)cc1)NCc1nc(C(=O)NCCc2ccccc2Cl)cs1 [Entry 104, N-[2-(2-chlorophenyl)ethyl]-2-({[({4-[(trifluoromethyl)oxy]phenyl}oxy)acetyl]amino}methyl)-1,3-thiazole-4-carboxamide]"
6.30 to 7.30,–,"O=C(COc1ccc(OC(F)(F)F)cc1)NCc1nc(C(=O)N[C@@H]2C[C@H]3CC[C@@H]2C3)cs1 [Entry 105, N-[(1R,2R,4S)-bicyclo[2.2.1]hept-2-yl]-2-({[({4-[(trifluoromethyl)oxy]phenyl}oxy)acetyl]amino}methyl)-1,3-thiazole-4-carboxamide]"
6.30 to 7.30,–,"COc1cccc(OC)c1CNC(=O)c1csc(CNC(=O)COc2ccc(OC(F)(F)F)cc2)n1 [Entry 106, N-{[2,6-bis(methyloxy)phenyl]methyl}-2-({[({4-[(trifluoromethyl)oxy]phenyl}oxy)acetyl]amino}methyl)-1,3-thiazole-4-carboxamide]"

pIC50 [1],pIC50,SMILES
6.30 to 7.30,–,"CN(CCCNC(=O)c1csc(CNC(=O)COc2ccc(OC(F)(F)F)cc2)n1)c1ccccc1 [Entry 107, N-{3-[methyl(phenyl)amino]propyl}-2-({[({4-[(trifluoromethyl)oxy]phenyl}oxy)acetyl]amino}methyl)-1,3-thiazole-4-carboxamide]"
6.30 to 7.30,–,"CC(NC(=O)c1csc(CNC(=O)COc2ccc(OC(F)(F)F)cc2)n1)c1ccccc1 (centres unmarked) [Entry 108, N-(1-phenylethyl)-2-({[({4-[(trifluoromethyl)oxy]phenyl}oxy)acetyl]amino}methyl)-1,3-thiazole-4-carboxamide]"
6.30 to 7.30,–,"O=C(COc1ccc(Br)cc1)NCc1nc(C(=O)NCCc2cccc(Cl)c2)cs1 [Entry 109, 2-[({[(4-bromophenyl)oxy]acetyl}amino)methyl]-N-[2-(3-chlorophenyl)ethyl]-1,3-thiazole-4-carboxamide]"
6.30 to 7.30,–,"CCc1ccc(NC(=O)NCc2nc(C(=O)NCc3ccccc3OC)cs2)cc1 [Entry 110, 2-[({[(4-ethylphenyl)amino]carbonyl}amino)methyl]-N-{[2-(methyloxy)phenyl]methyl}-1,3-thiazole-4-carboxamide]"
6.30 to 7.30,–,"CCc1ccc(OCC(=O)NCc2nc(C(=O)NCCc3cccc(Cl)c3)cs2)cc1 [Entry 111, N-[2-(3-chlorophenyl)ethyl]-2-[({[(4-ethylphenyl)oxy]acetyl}amino)methyl]-1,3-thiazole-4-carboxamide]"
6.30 to 7.30,–,"COc1ccc(OC)c(CNC(=O)c2csc(CNC(=O)COc3ccc(OC(F)(F)F)cc3)n2)c1 [Entry 112, N-{[2,5-bis(methyloxy)phenyl]methyl}-2-({[({4-[(trifluoromethyl)oxy]phenyl}oxy)acetyl]amino}methyl)-1,3-thiazole-4-carboxamide]"
6.30 to 7.30,–,"CCCCCCNC(=O)c1csc(CNC(=O)COc2ccc(OC(F)(F)F)cc2)n1 [Entry 113, N-hexyl-2-({[({4-[(trifluoromethyl)oxy]phenyl}oxy)acetyl]amino}methyl)-1,3-thiazole-4-carboxamide]"
6.30 to 7.30,–,"CC(C)c1ccc(CC(=O)NCc2nc(C(=O)NCCc3ccccc3F)cs2)cc1 [Entry 114, N-[2-(2-fluorophenyl)ethyl]-2-[({[4-(1-methylethyl)phenyl]acetyl}amino)methyl]-1,3-thiazole-4-carboxamide]"
6.30 to 7.30,–,"O=C(COc1ccc(OC(F)(F)F)cc1)NCc1nc(C(=O)NCc2c(F)cccc2F)cs1 [Entry 115, N-[(2,6-difluorophenyl)methyl]-2-({[({4-[(trifluoromethyl)oxy]phenyl}oxy)acetyl]amino}methyl)-1,3-thiazole-4-carboxamide]"
6.30 to 7.30,–,"O=C(COc1ccc(OC(F)(F)F)cc1)NCc1nc(C(=O)NCc2cccc(F)c2F)cs1 [Entry 116, N-[(2,3-difluorophenyl)methyl]-2-({[({4-[(trifluoromethyl)oxy]phenyl}oxy)acetyl]amino}methyl)-1,3-thiazole-4-carboxamide]"
6.30 to 7.30,–,"O=C(Cc1ccc2ccccc2c1)NCc1nc(C(=O)NCCc2cccc(Cl)c2)cs1 [Entry 117, N-[2-(3-chlorophenyl)ethyl]-2-{[(naphthalen-2-ylacetyl)amino]methyl}-1,3-thiazole-4-carboxamide]"
6.30 to 7.30,–,"COc1ccccc1CNC(=O)c1csc(CNC(=O)COc2ccc(C(C)C)cc2)n1 [Entry 118, 2-{[({[4-(1-methylethyl)phenyl]oxy}acetyl)amino]methyl}-N-{[2-(methyloxy)phenyl]methyl}-1,3-thiazole-4-carboxamide]"
6.30 to 7.30,–,"O=C(COc1ccc(OC(F)(F)F)cc1)NCc1nc(C(=O)NCc2cccc(Cl)c2)cs1 [Entry 119, N-[(3-chlorophenyl)methyl]-2-({[({4-[(trifluoromethyl)oxy]phenyl}oxy)acetyl]amino}methyl)-1,3-thiazole-4-carboxamide]"
6.30 to 7.30,–,"COc1ccc(CNC(=O)c2csc(CNC(=O)COc3ccc(OC(F)(F)F)cc3)n2)c(OC)c1 [Entry 120, N-{[2,4-bis(methyloxy)phenyl]methyl}-2-({[({4-[(trifluoromethyl)oxy]phenyl}oxy)acetyl]amino}methyl)-1,3-thiazole-4-carboxamide]"
6.30 to 7.30,–,"COc1cc(CNC(=O)c2csc(CNC(=O)COc3ccc(OC(F)(F)F)cc3)n2)cc(OC)c1 [Entry 121, N-{[3,5-bis(methyloxy)phenyl]methyl}-2-({[({4-[(trifluoromethyl)oxy]phenyl}oxy)acetyl]amino}methyl)-1,3-thiazole-4-carboxamide]"
–,6.30 to 7.30,"O=C(COc1ccc(OC(F)(F)F)cc1)NCc1nc(C(=O)NCCOc2ccccc2)cs1 [Entry 122, N-[2-(phenyloxy)ethyl]-2-({[({4-[(trifluoromethyl)oxy]phenyl}oxy)acetyl]amino}methyl)-1,3-thiazole-4-carboxamide]"
